{
  "source": "patent US11471463B2",
  "about": "“Enhancers of cellular cannibalism for use to sensitize tumors to radiation therapy” (Institut Gustave-Roussy, priority 2017, dated 2022)",
  "key": {"[1]": {"tested_on": "HCT116 cells", "assay": "Cell death profiling by quantitative flow imaging of co-cultured irradiated and non-irradiated cells", "assay_type": "cell-based, human", "details": "4 grays, 24 hour co-culture; for Engulfment of neighboring cells by gamma-irradiated CMFDA+ cells (cell-in-cell internalization): Y27632 30 μM; for Engulfment of neighboring cells by gamma-irradiated CMFDA+ cells (cell-in-cell internalization) / Exposure of PS on the outer plasma membrane of irradiated CMFDA+ cells: Z-VAD-fmk 100 μM; for Exposure of PS on the outer plasma membrane of irradiated CMFDA+ cells: Roscovitine 10 μM", "procedure": "Untreated HCT116 cells were labeled with CMFDA (green fluorescence, CMFDA^+) or CMTMR, (red fluorescence, CMTMR^+) and treated HCT116 cells with CMFDA (green fluorescence, CMFDA^+). The following cell mixtures were performed: untreated CMTMR^+ HCT116 cells were mixed with untreated CMFDA^+ HCT116 cells, or untreated CMTMR^+ HCT116 cells were mixed with treated CMFDA^+ HCT116 cells. Then, cells were co-cultured during 24 hours in the presence or absence of the pharmacological inhibitor of ROCK, Y27632 (30 μM), the pan-caspase inhibitor, Z-VAD-fmk (ZVAD, 100 μM), the inhibitor of caspase-1, Ac-YVAD-cmk (YVAD, 100 μM), the necroptosis inhibitor, Necrostatin-1 (NEC 1, 30 μM), the inhibitor of the vacuolar type H(+)-ATPase (V-ATPase) inhibiting autophagy, Bafilomycin A1 (BafA1, 50 nM), the inhibitor of Cdks with an anti-mitotic activity, Roscovitine (Rosco, 10 μM). After 24 hours of co-culture, both detached and adherent cells were collected and stained with Hoechst 33345 ([…]) during 1 hour at 37° C. in warmed complete medium. To detect phosphatidylserine (PS) exposure and plasma membrane permeability, labeled HCT116 cells were successively incubated with Biotin-AnnexinV (BD Pharmingen) as recommended by manufacturer, […] BV786-Streptavidin (BD Biosciences) and […] DRAQ7 (BioStatus) during 15 minutes at 25° C. After washing with PBS solution, samples were immediately analyzed using an imaging flow cytometer FlowSight® (Amnis®, part of EMD Millipore). Data were acquired at a 20× magnification, using INSPIRE software. The 405 nm, 488 nm, and 561 nm lasers were used for excitation. Brightfield, Annexin V-BV786, DRAQ7, CMFDA, CMTMR and Hoechst 33345 stainings were detected using respectively channels for 420-480 nm, 745-800 nm, 642-745 nm, 480-560 nm, 595-642 nm and 430-505 nm. At least 1000 events of cells per sample were analyzed. Additional single-labeled controls were prepared to normalize fluorescent signal across different channels. Acquired data were analyzed using the IDEAS analysis software (v6.1; Merck-Millipore). Gating strategy was the following. Cells were gated for focused cells using the Gradient RMS feature. Cells were gated for single cells using the aspect ratio and area features. For the cannibalism detection, cells were gated in the double positive CMFDA^+ and CMTMR^+ staining.\nTo detect PS exposure, plasma membrane permeability and cell cycle progression, cells were after co-culture sequentially labeled with specific fluorescent probes (such as FITC-conjugated AnnexinV, propidium iodide, and Hoechst 33342) and analyzed by flow cytometry. Both detached and adherent cells were collected and stained with Hoechst 33345 (10 ug/ml) during 1 hour at 37° C. in warmed complete medium. After washing with PBS, HCT116 cells were suspended in 1X binding buffer supplemented with fluorescein isothiocyanate (FITC)-conjugated Annexin V (BD Biosciences) and propidium iodide (PI, 1 μg/mL) (Sigma), as per manufacturer's instructions. Samples were then analyzed using LSRII flow cytometer (Becton Dickinson) and the FlowJo software v10. For confocal fluorescence microscopy, HCT116 cells were fixed after co-culture in 3,7% paraformaldehyde-PBS for 15 minutes and counterstained with 1 μg/mL Hoechst 33342 (Invitrogen) for 15 minutes. Then, cells were analyzed by confocal SPE microscope equipped with Apochromat 63×1.3 NA and 63×1.15 NA oil immersion objectives. The Leica Application Suite (LAS) software was used (Leica Microsystems).\nConsidering the diversity of lethal stimuli that can potentially initiate both non-cell autonomous and cell autonomous cell death modalities and the complexity of signaling pathways (involving (or not) caspases, cathepsins or granzymes) that control both processes, it was decided to simultaneously detect non-cell autonomous and cell autonomous death modalities elicited by IR. […]"}, "[2]": {"tested_on": "CT26 cells", "assay": "Anti-tumor vaccination assay, treated CT26 cells inoculated into BALB/c mice and rechallenge", "assay_type": "in vivo, mouse", "details": "8 Gy in presence of 10 μM compound for 24 hours", "procedure": "(§1) FIG. 5. Identification of cannibalism modulators as immunogenic cell death inducers. MCA205 (A) or CT26 (E, I, M, Q) cells were treated with the indicated drugs. After 24 h of coculture with the indicated treatment, cell death was monitored by staining DiOC6(3) and PI, and the percentage of dying (DiOC6(3)^low PI^−, open bars) and dead (DiOC6(3)^low PI^+, closed bars) cells was determined by cytofluorometry. (B-D) MCA205 cells or (F-H, J-L, N-P, R-T) CT26 cells cocultured after x irradiation with the indicated compounds were inoculated subcutaneously into the right flank of […] or BALB/c mice, respectively. Seven days later, the mice were rechallenged with live cells injected into the opposite flank, and tumor growth was monitored (five mice per group).\nFIG. 6. Tumor vaccination experiments. CT26 cells were treated for 24 hours with 10 μM VP331 (A, F, K), 10 μM Minaprine (B, G, L), 10 μM Lopa87 (C, H, M), 10 μM SG6163F (D, I, N), 10 μM Azaguanine-8 (8-aza) (E, J, O) alone or combined with 8 Gy ionizing radiation and inoculated (s.c.) into immunocompetent BALB/c mice, which were rechallenged at the opposite flank 7 days later with the same cancer cells. The percentage of tumor-free mice was evaluated three times a week for the following 38 days. Percentage of total tumor free mice (A-E), tumor free-mice at the first injection site (F to J, P) or at the second injection site (K to O, Q) are shown. (*P<0.05, **P<0.01, ***P<0.001, two-way ANOVA).\nConsidering that immunogenic cell death (ICD) inducers were identified (such as Digoxin, Digitoxin, Lanatoside C or Doxorubicin hydrochloride)^3, 4, 48-51) as IRCCE, the ability of these compounds to induce an antitumor immunity after radiotherapy was evaluated. First, a preclinical approaches was developed to study the immunological effects of IRCCE on two mouse models of carcinoma (colon CT26 carcinoma and fibrosarcoma MCA205). Initially, the ability of the combination of IRCCE+IR to trigger a specific anti-tumor immune response was appreciated using immunocompetent mice through anti-tumor vaccination assays. According to previously published studies^52, the injection of cancer cells succumbing to an immunogenic cell death (ICD) into immunocompetent mice must elicit a protective immune response that is specific for tumor antigens. Thus, 3×10^5 MCA205 cells were first treated with 10 μM of SG6163F for 24 hours. Then, treated cells were inoculated subcutaneously in 200 μl PBS into the lower flank of 8-week-old female C57BL/6 mice. One week later, 3×10^4 untreated control cells were inoculated into the contralateral flank of mice. Tumors were evaluated weekly using a common caliper. Animals bearing tumors that exceeded 20-25% body mass were euthanatized. […] Then, 3×10^6 CT26 cells were irradiated with 8 Gy in presence of 10 μM of SG6163F (FIGS. 5E and 5F), VP331 (FIGS. 5I and 5J), Minaprine dihydrochloride (FIGS. 5M and 5N) or LOPA87 (FIGS. 5Q and 5R) for 24 hours. Then, cells were inoculated as previously described subcutaneously in 200 μl PBS into the lower flank of 8-week-old female BALB/c mice. One week later, 5×10^5 untreated control cells were inoculated into the contralateral flank of mice and tumors were evaluated weekly using a common caliper. As previously mentioned, animals bearing tumors that exceeded 20-25% body mass were euthanatized. The percentage of dying cells in each condition was evaluated by determining with DiOC(6)3/IP staining (FIGS. 5E, 5I, 5M and 5Q). Finally, the ability of these compounds to repress the growth of cancer cells that have been injected 7 days after injection of irradiated and treated cancer cells was appreciated.\nA second anti-tumor vaccination assay was done on CT26 mouse models of carcinoma as previously described. […]"}, "[3]": {"tested_on": "MCA205 cells", "assay": "Anti-tumor vaccination assay, treated MCA205 cells inoculated into C57BL/6 mice and rechallenge", "assay_type": "in vivo, mouse", "procedure": "as §1\n(§2) Considering that immunogenic cell death (ICD) inducers were identified (such as Digoxin, Digitoxin, Lanatoside C or Doxorubicin hydrochloride)^3, 4, 48-51) as IRCCE, the ability of these compounds to induce an antitumor immunity after radiotherapy was evaluated. […] Tumors were evaluated weekly using a common caliper. […] One week later, 5×10^5 untreated control cells were inoculated into the contralateral flank of mice and tumors were evaluated weekly using a common caliper. […] The percentage of dying cells in each condition was evaluated by determining with DiOC(6)3/IP staining (FIGS. 5E, 5I, 5M and 5Q). […]"}, "[4]": {"tested_on": "HCT116 cells", "assay": "Screening for enhancers of IR-mediated cellular cannibalism (imaging flow cytometry, confocal microscopy validation)", "assay_type": "cell-based, human", "details": "8 Gray, 10 μM compound, 24 hours of culture", "procedure": "FIG. 4 Identification of cannibalism modulators triggered by ionizing radiation. Compounds from the Prestwick (A) and CEA (F) libraries were tested for their capacities to induce cellular cannibalism after ionizing radiation. Cannibal cells were detected after homotypic cultures of 8 gray γ-irradiation HCT116 cells in the presence or absence of […] of the Prestwick (A) and CEA […] library compounds. Each dot represents one compound. Representative images are shown in (B, G). (C, H) HCT116 cells were treated with the indicated drugs. After 24 h of treatment, cell death was monitored by staining with 3,3 dihexyloxacarbocyanine iodide (DiOC6(3)) and PI, and the percentage of dying (DiOC6(3)^low PI^−, open bars) and dead (DiOC6(3)^low PI^+, closed bars) cells was determined by cytofluorometry. Validation of the cannibalism inducers by fluorescent microscopy. Representative images (D, I) and quantification (E, J) are shown. Results are means±s.e.m. of triplicate determinations.\nThen, the screening of a library of chemical compounds was developed in order to identify compounds able to induce IR-mediated cellular cannibalism. Thus, HCT116 cells that have been treated with a radiation dose of 8 Gray were stained either with orange CMTMR cell tracker or green CMFDA cell tracker and cultivated in presence of 10 μM of chemical compounds. After 24 hours of culture, cells have been stained with nuclear dye (5 μg/ml of Hoechst 33342 during 1 h at 37° C.) and analyzed using the FlowSight® Imaging Flow Cytometer for cellular cannibalism. Each of these compounds were classified according to their Z-score^47 and identified respectively 13 and 11 candidate compounds (FIGS. 4A, 4B, 4F and 4G). Then, the identified compounds were validated by combining flow cytometry approaches (in order to eliminate cytotoxic compounds by simultaneously monitoring the depolarization of the internal mitochondrial membrane and the plasma membrane permeability of the treated cells) with confocal microscopy approaches (to confirm the modulation of IR-induced cellular cannibalism by candidate compounds) (FIGS. 4C-E and 4H-J). […] Finally, 16 chemical compounds that are able to enhance the capacity of IR to trigger cellular cannibalism were identified (FIGS. 4E and 4J, Tables 1&2)."}, "[5]": {"tested_on": "MCA205 cells", "assay": "Cell death monitoring by DiOC6(3)/PI staining", "assay_type": "cell-based, mouse", "procedure": "as §1, §2"}},
  "note": "Peptide text beside a SMILES is read from it. * marks the point of attachment. Cbz = O=C(OCc1ccccc1)*; CH2F = FC*",
  "data": [
    {"smiles": "CO/C1=C\\C(C)=C\\[C@@H](C)[C@@H](O)[C@@H](C)C/C(C)=C/C=C/[C@H](OC)[C@@H]([C@@H](C)[C@@H](O)[C@H](C)[C@@]2(O)C[C@@H](O)[C@H](C)[C@@H](C(C)C)O2)OC1=O", "note": "[bafilomycin A1, Bafilomycin A1]", "values": [
      {"measurement": "Frequency of dying cells (AnnexinV+DRAQ7- and DRAQ7+ cells)", "setting": "[1]; total, non-irradiated CMTMR+ and irradiated CMFDA+ cells, BafA1 50 nM", "value": "increased the frequency of dying cells"}
    ]},
    {"smiles": "COC(=O)CC(NC(=O)C(C)NC(=O)C(NC(=O)OCc1ccccc1)C(C)C)C(=O)CF", "note": "(stereo not drawn) [Z-VAD-fmk, Benzyloxycarbonyl-Val-Ala-Asp(OMe)-fluoromethylketone] (Cbz-Val-Ala-Asp(OMe)-CH2F; configuration not given here)", "values": [
      {"measurement": "Engulfment of neighboring cells by gamma-irradiated CMFDA+ cells (cell-in-cell internalization)", "setting": "[1]", "value": "not affected"},
      {"measurement": "Exposure of PS on the outer plasma membrane of irradiated CMFDA+ cells", "setting": "[1]", "value": "inhibited the exposure of PS"},
      {"measurement": "Cellular degradation of engulfed CMTMR+ cells", "setting": "[1]; inhibitors 100 μM", "value": "significantly reduced"}
    ]},
    {"smiles": "CC[C@H](CO)Nc1nc(NCc2ccccc2)c2ncn(C(C)C)c2n1", "note": "[roscovitine, Roscovitine]", "values": [
      {"measurement": "Exposure of PS on the outer plasma membrane of irradiated CMFDA+ cells", "setting": "[1]", "value": "inhibited the exposure of PS"}
    ]},
    {"smiles": "C[C@@H](N)[C@H]1CC[C@H](C(=O)Nc2ccncc2)CC1", "note": "[Y27632]", "values": [
      {"measurement": "Engulfment of neighboring cells by gamma-irradiated CMFDA+ cells (cell-in-cell internalization)", "setting": "[1]", "value": "repressed"}
    ]},
    {"smiles": "O=C1NC(c2ccccc2)=N/C1=C\\c1cc2ccccc2c2ccccc12", "note": "[SG6163F]", "values": [
      {"measurement": "Frequency of mice showing a protective response", "setting": "[2]; first assay: CT26 cells, rechallenge one week later", "value": "significant increase in the frequency of mice showing a protective response"},
      {"measurement": "Frequency of mice showing a protective response", "setting": "[2]; second assay: CT26 cells, rechallenge 7 days later", "value": "Significant increases in the frequency of mice showing a protective response"},
      {"measurement": "Protective response after inoculation of untreated cells", "setting": "[3]; MCA205 cells treated with 10 μM compound alone, rechallenge one week later", "value": "did not exhibit a protective response"},
      {"measurement": "Mice with protective response", "setting": "[3]; MCA205 cells treated with 8 Gy of IR and 10 μM compound", "value": "3 of 5"},
      {"measurement": "Enhancement of IR-mediated cellular cannibalism (IRCCE)", "setting": "[4]", "value": "efficient cellular cannibalism enhancer"},
      {"measurement": "Increase of cell death in vitro", "setting": "[5]; 10 μM compound alone, 24 hours", "value": "not able to induce a significant increase of cell death"},
      {"measurement": "Increase of death of treated and irradiated cells", "setting": "[5]; 8 Gy of IR and 10 μM compound", "value": "absence of a significant increase of death"}
    ]}
  ]
}
